# Laboratory results taken from the supplement of paper PMC10307832.
# How the values were obtained:
# Experiment in all cases: relative viability (nuclei count vs DMSO), 5 days (fraction); higher = more cells survive
# [1] = compound: CC(C)C[C@H](NC(=O)[C@H](Cc1ccccc1)NC(=O)c1cnccn1)B(O)O [Bortezomib] + NC(=O)Nc1cc(-c2cccc(F)c2)sc1C(=O)N[C@H]1CCCNC1 [AZD7762] (partner 0.2 µM)
# In short: (§1)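 Each reported value is a median over duplicate plates. It expresses relative viability: treated-well nuclei count divided by vehicle-well nuclei count. Lung cancer cell lines in 1536-well plates were dosed by pin tool a day after seeding, alone with one drug or with a fixed anchor-drug dose plus five library-drug doses (not always all listed) in √10 steps, and nuclei were counted after 5 days.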
# [2] = compound: CC(C)C[C@H](NC(=O)[C@H](Cc1ccccc1)NC(=O)c1cnccn1)B(O)O [Bortezomib] + CC(=O)c1c(C)c2cnc(Nc3ccc(N4CCNCC4)cn3)nc2n(C2CCCC2)c1=O [Palbociclib] (partner 0.5 µM)
# In short: as §1
# [3] = compound: CC(C)C[C@H](NC(=O)[C@H](Cc1ccccc1)NC(=O)c1cnccn1)B(O)O [Bortezomib] + Nc1ncn([C@H]2C[C@H](O)[C@@H](CO)O2)c(=O)n1 [Decitabine] (partner 2 µM)
# In short: as §1
# [4] = compound: CC(C)C[C@H](NC(=O)[C@H](Cc1ccccc1)NC(=O)c1cnccn1)B(O)O [Bortezomib] + CC(=O)Nc1cccc(-n2c(=O)n(C3CC3)c(=O)c3c(Nc4ccc(I)cc4F)n(C)c(=O)c(C)c32)c1 [Trametinib] (partner 0.02 µM)
# In short: as §1
Cell Line,relative viability ([1]; first compound 0.0002 µM),relative viability ([1]; first compound 0.000632 µM),relative viability ([1]; first compound 0.002 µM),relative viability ([1]; first compound 0.006325 µM),relative viability ([1]; first compound 0.02 µM),relative viability ([2]; first compound 0.0002 µM),relative viability ([2]; first compound 0.000632 µM),relative viability ([2]; first compound 0.002 µM),relative viability ([2]; first compound 0.006325 µM),relative viability ([2]; first compound 0.02 µM),relative viability ([3]; first compound 0.0002 µM),relative viability ([3]; first compound 0.000632 µM),relative viability ([3]; first compound 0.002 µM),relative viability ([3]; first compound 0.006325 µM),relative viability ([3]; first compound 0.02 µM),relative viability ([4]; first compound 0.0002 µM),relative viability ([4]; first compound 0.000632 µM),relative viability ([4]; first compound 0.002 µM),relative viability ([4]; first compound 0.006325 µM),relative viability ([4]; first compound 0.02 µM)
NCI-H2342,0.64,0.486,0.478,0.582,0.433,0.578,0.502,0.54,0.534,0.357,0.818,0.795,0.694,0.725,0.436,0.869,0.965,0.815,0.924,0.386
HCC-827,0.267,0.259,0.18,0.215,0.199,0.496,0.626,0.467,0.197,0.137,0.35,0.376,0.346,0.327,0.296,0.515,0.555,0.417,0.218,0.141
NCI-H322M,0.539,0.636,0.654,0.385,0.393,0.486,0.448,0.463,0.441,0.404,0.783,0.671,0.705,0.6,0.45,0.547,0.455,0.47,0.486,0.411
ChaGo-K-1,0.847,0.716,0.886,0.691,0.164,0.956,0.903,0.942,0.382,0.136,0.49,0.444,0.561,0.444,0.161,0.882,0.89,0.85,0.279,0.144
BEN,0.667,0.788,0.73,0.578,0.389,0.443,0.461,0.489,0.445,0.236,0.716,0.801,0.678,0.522,0.337,0.856,0.953,0.87,0.829,0.29
NCI-H2347,0.888,0.695,0.73,0.553,0.276,0.401,0.497,0.406,0.292,0.231,0.631,0.601,0.648,0.466,0.429,0.263,0.283,0.193,0.243,0.232
LOU-NH91,0.729,0.68,0.361,0.348,0.339,0.512,0.523,0.383,0.32,0.302,0.805,0.82,0.41,0.373,0.322,0.772,0.793,0.402,0.344,0.359
NCI-H2228,–,–,–,–,–,0.587,0.843,0.72,0.0946,0.0943,–,–,–,–,–,0.469,0.505,0.32,0.123,0.0916
NCI-H358,0.615,0.285,0.619,0.241,0.225,0.158,0.11,0.0987,0.0826,0.0983,0.204,0.207,0.191,0.0949,0.0871,0.12,0.121,0.133,0.094,0.0906
HCC-366,0.221,0.331,0.401,0.37,0.0238,0.352,0.319,0.372,0.0727,0.0268,0.305,0.327,0.39,0.201,0.0383,0.333,0.371,0.433,0.181,0.0229
NCI-H2405,0.699,0.714,0.919,0.165,0.159,0.503,0.547,0.349,0.143,0.141,0.716,0.692,0.545,0.212,0.181,0.579,0.646,0.523,0.223,0.188
201T,0.602,0.684,0.59,0.661,0.38,0.339,0.367,0.37,0.33,0.218,0.846,0.859,0.894,0.819,0.274,0.732,0.72,0.685,0.625,0.262
CAL-12T,0.608,0.596,0.602,0.576,0.271,0.561,0.447,0.384,0.182,0.104,–,–,–,–,–,0.378,0.335,0.327,0.156,0.133
HCC-44,0.959,0.985,1.01,1.04,0.239,1.02,1.02,0.943,0.759,0.278,0.965,0.965,0.961,0.953,0.258,1.1,1.04,0.984,0.92,0.277
NCI-H1944,0.508,0.511,0.637,0.295,0.166,0.315,0.309,0.336,0.21,0.15,0.414,0.429,0.461,0.402,0.248,0.43,0.371,0.397,0.297,0.193
SK-MES-1,–,–,–,–,–,0.317,0.321,0.296,0.159,0.179,0.444,0.411,0.379,0.194,0.156,0.506,0.546,0.533,0.215,0.158
NCI-H2087,1.3,1.23,1.19,0.0709,0.0403,0.218,0.246,0.156,0.0525,0.036,0.233,0.265,0.141,0.0621,0.0401,0.201,0.187,0.149,0.0967,0.0704
COR-L 105,–,–,–,–,–,0.439,0.381,0.345,0.378,0.355,0.695,0.614,0.526,0.33,0.278,0.449,0.42,0.414,0.375,0.376
LCLC-97TM1,0.179,–,0.32,0.234,0.0966,0.235,0.183,0.12,0.0721,0.0639,0.245,0.238,0.21,0.0935,0.0627,0.173,0.205,0.162,0.0973,0.063

Cell Line,relative viability ([1]; first compound 0.0002 µM),relative viability ([1]; first compound 0.000632 µM),relative viability ([1]; first compound 0.002 µM),relative viability ([1]; first compound 0.006325 µM),relative viability ([1]; first compound 0.02 µM),relative viability ([2]; first compound 0.0002 µM),relative viability ([2]; first compound 0.000632 µM),relative viability ([2]; first compound 0.002 µM),relative viability ([2]; first compound 0.006325 µM),relative viability ([2]; first compound 0.02 µM),relative viability ([3]; first compound 0.0002 µM),relative viability ([3]; first compound 0.000632 µM),relative viability ([3]; first compound 0.002 µM),relative viability ([3]; first compound 0.006325 µM),relative viability ([3]; first compound 0.02 µM),relative viability ([4]; first compound 0.0002 µM),relative viability ([4]; first compound 0.000632 µM),relative viability ([4]; first compound 0.002 µM),relative viability ([4]; first compound 0.006325 µM),relative viability ([4]; first compound 0.02 µM)
NCI-H520,–,–,–,–,–,0.198,0.18,0.169,0.141,0.131,0.43,0.549,0.424,0.174,0.155,0.667,0.741,0.451,0.141,0.128
NCI-H1993,0.838,0.877,–,0.333,0.324,0.569,0.737,0.666,0.369,0.359,0.634,0.717,0.622,0.319,0.374,0.51,0.507,0.527,0.452,0.375
NCI-H1437,1.09,1.11,1.04,0.496,0.194,0.305,0.35,0.319,0.135,0.118,0.585,0.585,0.595,0.214,0.223,0.537,0.584,0.551,0.178,0.226
LC-2-ad,0.828,0.787,0.878,0.271,0.182,0.534,0.499,0.504,0.278,0.161,0.73,0.81,0.931,0.516,0.225,0.903,0.89,0.995,0.597,0.201
HARA,0.257,0.311,0.577,0.178,0.0909,0.185,0.253,0.288,0.166,0.152,0.459,0.569,0.415,0.125,0.124,0.642,0.592,0.896,0.0979,0.189
NCI-H1975,0.727,0.652,0.319,0.172,0.194,0.663,0.517,0.138,0.1,0.106,0.411,0.371,0.176,0.126,0.115,0.501,0.312,0.152,0.11,0.0939
ABC-1,–,0.712,0.184,0.223,0.191,0.619,0.709,0.269,0.229,0.328,1.09,1,0.389,0.284,0.287,–,–,–,–,–
NCI-H1703,0.117,0.102,0.133,0.178,0.137,–,–,–,–,–,–,–,–,–,–,–,–,–,–,–
NCI-H661,–,–,–,–,–,0.4,0.409,0.434,0.284,0.203,0.553,0.553,0.529,0.395,0.204,0.526,0.493,0.62,0.364,0.207
NCI-H1650,–,–,–,–,–,0.342,0.312,0.136,0.117,0.146,0.488,0.484,0.182,0.137,0.128,0.627,0.572,0.128,0.132,0.129
SW 1573,–,–,–,–,–,0.346,0.419,0.171,0.055,0.0399,0.366,0.573,0.229,0.0617,0.0363,0.55,0.612,0.291,0.074,0.0469
SK-LU-1,–,–,–,–,–,0.387,0.361,0.359,0.279,0.158,0.499,0.644,0.533,0.245,0.174,0.505,0.436,0.43,0.202,0.173
COR-L23,–,–,–,–,–,0.308,0.274,0.183,0.0534,0.0546,0.439,0.417,0.396,0.0939,0.0825,0.478,0.586,0.704,0.0593,0.06
A549,–,–,–,–,–,–,–,–,–,–,0.294,0.205,0.339,0.201,0.248,–,–,–,–,–
NCI-H2023,–,–,–,–,–,0.303,0.345,0.332,0.0803,0.0773,0.216,0.236,0.245,0.122,0.0571,0.631,0.569,0.533,0.131,0.0889
UMC-11,–,–,–,–,–,0.3,0.334,0.294,0.295,0.214,0.628,0.713,0.483,0.326,0.203,0.731,0.845,0.574,0.296,0.132
NCI-H596,0.983,1.22,1.15,0.634,0.205,–,–,–,–,–,1.01,0.999,0.95,0.251,0.208,0.835,0.773,0.568,0.208,0.168
NCI-H2009,–,–,–,–,–,0.241,0.205,0.176,0.0661,0.0466,0.392,0.431,0.388,0.101,0.0757,0.322,0.223,0.256,0.0731,0.0528
